The results in this text go back to patent publication US20060204502A1 (priority 2004, published 2006).

Usually Ki stands for a dissociation constant, usually derived from enzyme kinetics or from competition with a known ligand. Read a high Ki as a looser hold on the target.

Data set [1] deals with A375 cells. The experiment in a line: Colony formation assay of A375 cells. The data set is classed as cell-based, human. Here is the method:
FIG. 2 illustrates colony formation assay of A375 cells. Cells were treated with different drugs and colonies were counted after 7 days. The values represent the mean±SEM of four independent experiments. […] Analysis was by ANOVA followed by Dunnett's test.
Control plates received the same volume of DMSO alone. After 7 days of growth at 37° C. in humidified atmosphere containing 5% CO2, the cells were fixed with absolute methanol for 5′ and stained with 1/10 Giemsa/phosphate-buffered saline (PBS) staining solution for 10 minutes. Staining solution was removed and colonies of greater than 30 cells were scored as survivors. For each treatment, six individual wells were scored.

Another data set has as its system HIF-1α. The experiment in a line: HIF-1α protein immunoblot in hypoxic cells. The data set is classed as cell-based, human. Conditions: for HIF-1α protein expression: 100 nM, 4 hours hypoxia. Here is the method: Cell culture and hypoxia treatment: Cells were maintained in DMEM (A375), EMEM (NCTC 2544) or RPMI 1640 (U87MG, U2OS) medium containing 10% fetal calf serum, penicillin (100 U/ml), streptomycin (100 ug/ml), and L-glutamine (2 mM) at 37° C. in 5% CO2/95% air. Cells were passaged two or three times weekly at a ratio between 1:5 and 1:10. Hypoxic exposure was in BBL™ GasPak pouch™ System (Becton Dickinson) that reduce oxygen concentration of less than 2% within 2 hours of incubation at 35° C.
Cells were harvested and washed with ice-cold PBS containing 1 mM sodium orthovanadate, AEBSF 104 mM, aprotinin 0.08 mM, leupeptin 2 mM, bestatin 4 mM, pepstatin A 1.5 mM, E-64 1.4 mM. Cells were then lysed in Triton lysis buffer. The protein concentration was determined using BCA protein assay kit (Pierce). […] The gel was then electroblotted onto a nitrocellulose membrane. Membranes were blocked with 5% nonfat dry milk in PBS containing 0.1% Tween-20 and incubated with antibodies against HIF-1α (1:250 dilution) and HIF-1β (1:1000 dilution) in 5% nonfat dry milk in PBS/0.1% Tween-20 overnight at 4° C. Aliquots of total protein sample (50 ug) were analyzed using antibodies specific for phosphorylated (Thr183/Tyr185) or total p44/p42 MAPK (1:5000 dilution), phosphorylated (Thr180/Tyr182) or total p38 MAPK (1:1000 dilution) and for A3 receptor (1 µg/ml dilution). Filters were washed and incubated for 1 hour at room temperature with peroxidase-conjugated secondary antibodies against mouse and rabbit IgG (1:2000 dilution). […] The membranes were then stripped and reprobed with tubulin (1:250) to ensure equal protein loading.
U0126 was used at 10 and 30 uM as inhibitor of MEK-1 and MEK-2 to prevent p44 and p42 MAPK activation. SB202190 was used at 1 and 10 uM as inhibitor of p38 MAPK.
Densitometry analysis: The intensity of each band in immunoblot assay was quantified using molecular analyst/PC densitometry software (Bio-Rad). […] The data were presented as the mean±S.E., and analyzed by the Student's test.
(In general: In western blotting, separated proteins are transferred to a membrane and probed.)

In another data set the test system is HIF-1α mRNA. Put plainly: Real-Time RT-PCR of HIF-1α mRNA, A375 cells in hypoxia. As to conditions: 4 hours hypoxia. The data set is classed as cell-based, human. (In qPCR the cycle at which signal appears reflects the starting amount.)
Another data set deals with p44/p42 MAPK. Put plainly: p44/p42 MAPK phosphorylation immunoblot, A375 cells in hypoxia. The data set is classed as cell-based, human. Conditions: 4 hours hypoxia, nanomolar concentrations, maximum at 100 nM. On the procedure:
(§1) Cells were harvested and washed with ice-cold PBS containing 1 mM sodium orthovanadate, AEBSF 104 mM, aprotinin 0.08 mM, leupeptin 2 mM, bestatin 4 mM, pepstatin A 1.5 mM, E-64 1.4 mM. Cells were then lysed in Triton lysis buffer. The protein concentration was determined using BCA protein assay kit (Pierce). Equivalent amounts of protein (35 ug) were subjected to electrophoresis on 7.5% sodium dodecyl sulfate-acrylamide gel. The gel was then electroblotted onto a nitrocellulose membrane. Membranes were blocked with 5% nonfat dry milk in PBS containing 0.1% Tween-20 and incubated with antibodies against HIF-1α (1:250 dilution) and HIF-1β (1:1000 dilution) in 5% nonfat dry milk in PBS/0.1% Tween-20 overnight at 4° C. Aliquots of total protein sample (50 ug) were analyzed using antibodies specific for phosphorylated (Thr183/Tyr185) or total p44/p42 MAPK (1:5000 dilution), phosphorylated (Thr180/Tyr182) or total p38 MAPK (1:1000 dilution) and for A3 receptor (1 µg/ml dilution). Filters were washed and incubated for 1 hour at room temperature with peroxidase-conjugated secondary antibodies against mouse and rabbit IgG (1:2000 dilution). […] The membranes were then stripped and reprobed with tubulin (1:250) to ensure equal protein loading. […]

The subject of the next data set is p38 MAPK. Put plainly: p38 MAPK phosphorylation immunoblot, A375 cells in hypoxia. The data set is classed as cell-based, human. Conditions: 4 hours hypoxia, 10-1000 nM. On the procedure:
as §1

In data set [2] the test system is A375 cells. The experiment in a line: Flow cytometry cell cycle (G2/M) and apoptosis (sub-G1) analysis, A375. Conditions: A375; for EC50: Homo sapiens, A-375. The data set is classed as cell-based, human. Here is the method:
Flow Cytometry Analysis: A375 and NCTC2544 adherent cells were trypsinized, mixed with floating cells, washed with PBS and permeabilised in 70% (vol/vol) ethanol/PBS solution at 4° C. for at least 24 hours. Jurkat, HeL023 and PBMC cells were centrifuged for 10 minutes at 1000×g. The cell pellet was then resuspended and permeabllised in 70% (vol/vol) ethanol/PBS solution at 4° C. for at least 24 hours. The cells were washed with PBS and the DNA was stained with a PBS solution, containing 20 μg/ml of propidium iodide and 100 μg/ml of RNAse, at room temperature for 30 minutes. Cells were analysed by FACScan (Becton-Dickinson) and the content of DNA was evaluated by the Cell-LISYS program (Becton-Dickinson). Cell distribution among cell cycle phases and apoptotic cells was evaluated as previously described (Secchiero et al., 2001). Briefly, the cell cycle distribution is shown as the percentage of cells containing 2n (G1 phase), 4n (G2 and M phases), 4n>x>2n. DNA amount (S phase) judged by propidium iodide staining. The apoptotic population is the percentage of cells with DNA content lower than 2n.
After 24 hours, cells were collected for flow cytometry analysis. PD 98059 was used at 20 uM as an inhibitor of MEK to prevent MEK-1 activation. […]
EC50 values were obtained by analysing G2/M accumulation dose response curve. ECMAX values were obtained by analysing sub-G1 accumulation dose response curve. Paclitaxel values have units of ng/ml.
(Flow cytometry measures light scatter and fluorescence of single cells or particles in a stream.)

Data set [3] has as its target T1, human A3 adenosine receptor (Homo sapiens, UniProt P0DMS8).
T1 construct: endogenous in cells; host or cells: A375 human melanoma cells (ATCC)
T1 sequence (P0DMS8 1-318): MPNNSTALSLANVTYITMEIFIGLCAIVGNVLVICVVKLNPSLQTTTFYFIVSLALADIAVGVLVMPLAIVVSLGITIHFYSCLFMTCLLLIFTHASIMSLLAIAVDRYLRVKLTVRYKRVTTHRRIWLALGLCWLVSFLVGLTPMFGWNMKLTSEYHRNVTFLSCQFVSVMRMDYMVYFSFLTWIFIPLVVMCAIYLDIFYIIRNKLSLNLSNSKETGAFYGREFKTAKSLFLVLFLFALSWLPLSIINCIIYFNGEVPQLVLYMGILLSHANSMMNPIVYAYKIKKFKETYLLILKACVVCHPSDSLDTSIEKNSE
Put plainly: Binding affinity to A3 adenosine receptor in A375 cells.

Another data set has as its target P-gp (Homo sapiens, UniProt P08183). The data set is classed as cell-based. As to conditions: HeL023 cells; 10 μM. Here is the method: Rhodamine 123 Efflux Assay: 5×10^5 cells from each subline were loaded with 50 ng/ml of rhodamine 123 for 30 minutes at 37 C in medium. The cells were washed and resuspended in dye-staining agent free medium for 3 hours at 37 C. to allow rhodamine 123 efflux. The cells were then washed twice and the fluorescence of intracellular rhodamine 123 were analysed with Flow cytometer (residual fluorescence FRES). The fluorescence was compared with loaded cells maintained at 4 C. to prevent drug export (maximal fluorescence FMAX). […] Cells from each subline that were not being exposed to rhodamine 123 were used as negative controls.
Rhodamine 123 (Rh123) retention, a P-gp functional assay, was studied in all cell lines. This assay was performed by incubating cells with Rh123 and determining Rh123 accumulation by measuring its fluorescence. The maximum load of Rh123 (FMAX) was quantified at the end of treatment harvesting the cells and storing them at 4° C. to prevent any active Rh123 efflux. The P-gp drug efflux was allowed incubating Rh123-loaded cells in fresh new medium Rh123-free for 3 hours at 37° C. After this incubation, residual fluorescence (FRES) was measured and compared to FMAX.

Another data set deals with PBMC blasts. Put plainly: Flow cytometry cell cycle analysis, PBMC blasts. The data set is classed as cell-based. Conditions: Homo sapiens, + MRE3008F20 10 μM, read-out: EC50 (G2/M accumulation).
The test system of a further data set is Human Melanoma A375. The experiment in a line: MTT growth inhibitory assay, A375. Conditions: Homo sapiens, A-375, read-out: IC50 (μg/ml) of anti-neoplastic agent used jointly with A3 antagonist, A375 cells.

Where two headings read alike, the source gives them in different places.

P-gp, sequence (P08183 whole entry): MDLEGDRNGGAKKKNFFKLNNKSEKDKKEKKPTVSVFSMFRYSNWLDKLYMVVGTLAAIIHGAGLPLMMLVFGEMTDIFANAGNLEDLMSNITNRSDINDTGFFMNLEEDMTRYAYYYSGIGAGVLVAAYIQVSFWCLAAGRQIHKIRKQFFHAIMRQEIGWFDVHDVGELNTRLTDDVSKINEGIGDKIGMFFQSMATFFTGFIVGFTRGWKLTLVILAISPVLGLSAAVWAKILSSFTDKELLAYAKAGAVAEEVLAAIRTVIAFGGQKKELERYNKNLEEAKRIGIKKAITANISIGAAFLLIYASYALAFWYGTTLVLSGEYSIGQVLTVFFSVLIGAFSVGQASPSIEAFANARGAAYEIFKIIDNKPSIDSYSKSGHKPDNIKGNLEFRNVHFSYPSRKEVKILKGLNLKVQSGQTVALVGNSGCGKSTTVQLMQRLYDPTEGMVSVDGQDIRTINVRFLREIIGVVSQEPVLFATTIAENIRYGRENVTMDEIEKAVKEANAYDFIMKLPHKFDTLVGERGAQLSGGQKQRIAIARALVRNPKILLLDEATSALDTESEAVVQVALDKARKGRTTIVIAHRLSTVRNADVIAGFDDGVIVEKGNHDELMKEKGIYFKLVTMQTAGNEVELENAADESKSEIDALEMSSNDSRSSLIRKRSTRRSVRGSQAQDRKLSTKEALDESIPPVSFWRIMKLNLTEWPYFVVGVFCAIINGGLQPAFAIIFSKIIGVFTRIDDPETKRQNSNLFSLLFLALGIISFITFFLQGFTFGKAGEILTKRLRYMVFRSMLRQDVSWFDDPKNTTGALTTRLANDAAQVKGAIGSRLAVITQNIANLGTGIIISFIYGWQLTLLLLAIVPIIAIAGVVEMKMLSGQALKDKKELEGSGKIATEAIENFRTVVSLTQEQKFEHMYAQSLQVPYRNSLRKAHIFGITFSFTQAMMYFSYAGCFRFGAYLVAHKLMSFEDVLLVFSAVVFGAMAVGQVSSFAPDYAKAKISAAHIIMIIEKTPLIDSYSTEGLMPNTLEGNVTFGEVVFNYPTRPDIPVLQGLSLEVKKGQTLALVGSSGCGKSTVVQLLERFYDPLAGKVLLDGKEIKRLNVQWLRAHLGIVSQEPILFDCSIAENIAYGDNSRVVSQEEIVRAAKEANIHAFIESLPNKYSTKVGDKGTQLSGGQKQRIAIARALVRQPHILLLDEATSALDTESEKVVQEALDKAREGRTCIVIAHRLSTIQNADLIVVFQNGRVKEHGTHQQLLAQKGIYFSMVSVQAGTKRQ
Protocol for Human Melanoma A375: An exemplary assay may comprise the following steps: Cells (1000-1500 cells/well) are seeded in a 96-well micro culture plate in a total volume of 100 μl/well. After overnight incubation in a humidified incubator at 37° C. with 5% CO2-95% air, chemotherapeutic drug solutions diluted with culture medium at various concentrations are added in the amount of 100 μl to each well. The plates are placed in a humidified incubator at 37° C. with 5% CO2-95% air for 7-10 days. The plates are then centrifuged briefly and 100 μl of the growth medium is removed. Cell cultures are incubated with 50 μl of MTT [3-(4,5-dimethylthiazol-2-yl)-2,5-diphenyl-tetrazolium bromide] reagent (1 mg/ml in Dulbecco's phosphate-buffered saline) for 4 hr at 37° C. The resultant purple formazan precipitate is solubilized with 200 μl of 0.04 N HCl in isopropanol. Absorbance is measured at a wavelength of 595 nm and at a reference wavelength of 655 nm using a Bio-Rad Model 3550 Microplate Reader. Preferably, all tests are run in duplicate for each dose level. […] The EZED50 computer program estimates the concentration of agent that inhibits cell growth by 50% as compared to the control cells. This is termed the IC50 and is determined by curve fitting test data using the following four logistic equation. [formula]
If testing concentrations are properly selected (i.e., no or little growth inhibition at low concentrations and complete inhibition at high concentrations), EZED50 program fits the data extremely well and estimates the IC50 value accurately. […] In these instances, the data could be re-analyzed by fixing the Amax value.
In this case, the IC50 could be estimated more accurately if both the Amax and Amin values are fixed. Although it may be feasible to estimate IC50 value by fixing Amax and/or Amax and Amin without repeating the experiment, the best way to determine the IC50 accurately is to decrease or increase the concentrations of the test agent and repeat the test.
Inhibitory assay testing is also used to determine enhanced therapeutic effects from combining A3 receptor antagonists with other tumor inhibiting agents. The inhibitory cell growth assays are run with and without selected concentrations of A3 receptor antagonists. An enhanced therapeutic effect is present when the IC50 of the tumor inhibiting agent is lower with the A3 receptor antagonist.
Quantitatively, the enhancement factor (EF) is calculated by dividing the IC50 value of the tumor inhibiting agent for a tumor cell line by the IC50 value of the agent with A3 receptor antagonist for the same cell line: [formula]
Interpretation of the EF is dependent upon the concentrations of A3 receptor antagonist tested. For example, when using very low concentrations of A3 receptor antagonist, any EF above 1.0 is synergistic if the A3 receptor antagonist concentration is below the threshold of cell growth inhibition.
The cells are cultured in a T25 Falcon Tissue Culture flask in a humidified incubator at 37° C. with 5% CO2-95% air. The cells are sub-cultured twice a week.
All other agents were dissolved in 100% DMSO at appropriate concentrations.
Protocol for PBMC blasts: For multi-drug resistance testing, A375 and NCTC2544 cells are grown adherently and maintained in DMEM and EMEM medium, respectively, containing 10% fetal calf serum, penicillin (100 U/ml), streptomycin (100 μg/ml), L-glutamine (2 mM) at 37° C. in 5% CO2/95% air. HeL023 and Jurkat were grown in RPMI-1640 medium, containing 10% fetal calf serum, penicillin (100 U/ml), streptomycin (100 μg/ml), L-glutamine (2 mM) at 37° C. in 5% CO2/95% air. Cells are passaged two or three times weekly at a ratio between 1:5 and 1:10. Lymphocytes were isolated from buffy coats kindly provided by the Blood Bank of the University Hospital of Ferrara. Blood donated by healthy volunteers, after informed consent for research was obtained. Lymphocytes were isolated by density gradient centrifugation (Ficoll/Histopaque 1.077 g/ml). […]
Flow Cytometry Analysis: A375 and NCTC2544 adherent cells were trypsinized, mixed with floating cells, washed with PBS and permeabilised in 70% (vol/vol) ethanol/PBS solution at 4° C. for at least 24 hours. […] Cells were analysed by FACScan (Becton-Dickinson) and the content of DNA was evaluated by the Cell-LISYS program (Becton-Dickinson). Cell distribution among cell cycle phases and apoptotic cells was evaluated as previously described (Secchiero et al., 2001). […]

Take `CNC(=O)[C@H]1O[C@@H](n2cnc3c(NCc4cccc(I)c4)nc(Cl)nc32)[C@H](O)[C@@H]1O` [Cl-IB-MECA]: the “colony formation, % of DMSO control” value was 130% in the data set on A375 cells [1] (10 μM alone, colonies counted after 7 days) and 85% in the data set on A375 cells [1] (10 μM combined with paclitaxel (0.75 μg/ml), 7 days). The EC50 in the data set on HIF-1α (A375, hypoxia 4 hours, read-out: EC50, HIF-1α protein accumulation) came out at 10.6 ± 1.2 nM. In addition, the HIF-1α protein expression result in the data set with HIF-1α (U2OS osteosarcoma), in the data set on HIF-1α (U87MG glioblastoma) and in the data set on HIF-1α (human keratinocytes NCTC 2544) was “significant increase” throughout. For the same compound, the “fold increase of HIF-1α mRNA accumulation vs untreated cells” value in the data set on HIF-1α mRNA (10 nM) came out at 1.13±0.10 fold; in the data set on HIF-1α mRNA (100 nM), 1.25±0.15 fold; in the data set with HIF-1α mRNA (1 μM), 1.19±0.13 fold. The “phosphorylation of p44 and p42” value in the data set on p44/p42 MAPK is “induced”. Besides, the “phosphorylation of p38 MAPK” value in the data set on p38 MAPK is recorded as “increased the phosphorylation of p38 MAPK in a dose-dependent manner”.

`CCCCn1cc2c(nc(NC(=O)Nc3ccccc3)n3nc(-c4ccco4)nc23)n1` [MRE 3062F20, 5-N-(4-phenyl-carbumoyl)amino-8-butyl-2(2furyl)-pyrazolo-[4,3e]-1,2,4-triazolo[1,5-c]pyrimidine]: the EC50 with A375 cells [2] (antagonist dose inducing 50% of the enhancing activity to vindesine (1 nM), G2/M accumulation, read-out: SEC50) came out at 430 ± 40 nM. The inhibition constant Ki in [3] turned out to be 2.3 ± 0.2 nM. For the same compound, on P-gp, the “% of Rh123 Negative Cells (cells expressing P-gp activity)” value was 1.0 ± 0.2%.

Turning to `CC(=O)O[C@H]1C(=O)[C@@]2(C)[C@H]([C@H](OC(=O)c3ccccc3)[C@]3(O)C[C@H](OC(=O)[C@H](O)[C@@H](NC(=O)c4ccccc4)c4ccccc4)C(C)=C1C3(C)C)[C@]1(OC(C)=O)CO[C@@H]1C[C@@H]2O` [paclitaxel], the “colony formation, % of DMSO control” value in the data set with A375 cells [1] (paclitaxel (0.75 μg/ml) alone, 7 days) is on record as 64%. For the same compound, the “ECMAX (concentration exerting maximal apoptosis, sub-G1)” value in the data set with A375 cells [2] (DMSO (no antagonist)) was 6.00 ± 0.63 ng/mL. The EC50 turned out to be 16.6 ± 2 ng/mL in the data set with A375 cells [2] (24 h, DMSO (no antagonist), read-out: EC50 (G2/M accumulation)) and 5.3 ± 0.6 ng/mL with PBMC blasts. In addition, the IC50 in the data set on Human Melanoma A375 (+ IL-11 (5 μg/ml)) came to 0.00046 µg/mL; in the data set with Human Melanoma A375 (+ MRE3008F20 (10 μg/ml)), 0.00059 µg/mL.
